Experiments:
HSPC-pDCs = assay: SR1/IL-3 deprivation: flow cytometry of CD123 and CD303; type: cell-based, human
Method: Priming of HSPC-pDCs was performed as previously described [Laustsen, A., et al 2018]. […] HSPC-pDCs were primed with 250 U/mL IFN-β (PBL Assay Science) and 250 U/mL IFN-γ (Peprotech) or left unprimed. Cells were primed for 24 hours before being phenotypically and functionally characterized.
Flow cytometry was used to immunophenotype pDCs. Briefly, cells were spun down and resuspended in 25 μL TruStain FcBlock (Biolegend) diluted in cold FACS buffer (PBS with 2% FCS and 1 mM EDTA) and incubated cold for 15 minutes. Cells were subsequently stained 25 μL with the following antibodies: APC anti-human Lineage Cocktail (CD3 (UCHT1), CD14 (HCD14), CD16 (3G8), CD19 (HIB19), CD20 (2H7) and CD56 (HCD56), 348801, BioLegend), FITC anti-human CD11c (3.9, 301604, BioLegend), BV421 CD14 (HCD14, 325628, BioLegend), PE CD34 (581, 343506, BioLegend), APC-eFluor780 anti-human CD123 (6H6, 47-1239-42, eBioscience), PE-Cy7 anti-human CD303 (201a, 354214, BioLegend). Cells were stained for 30 min before being washed two times in FACS buffer and finally resuspended in 200 μL FACS Buffer. Fluorescence intensities were measured using the Attune NxT Flow Cytometer equipped with 4 lasers (405 nm, 488 nm, 561 nm, and 638 nm). Data analysis was done using FlowJo (Version 10.8.1, Tree Star, Ashland, OR, USA.

[1] = test system: Cord-blood derived CD34+HSPCs; assay: SR1/IL-3 deprivation during final 3 days of HSPC-pDC differentiation: cell growth and viability; type: cell-based, human
Method: In addition, 1 μM of the small molecule inhibitor StemRegenin 1 (SR1, […] Technologies), 20 μg/mL streptomycin and 20 U/mL penicillin (Gibco, Life Technologies) and 50 μg/mL of ascorbic acid (Sigma Aldrich) was added. Cells were cultured at 37° C., 95% humidity, and 5% CO2 for 17 days, medium was replenished every 2-4 day. […] Viability and total cell numbers during expansion and differentiation of HSPCs was determined using a TC20 Automated Cell Counter (Bio-Rad).

CC(C)n1cnc2c(NCCc3ccc(O)cc3)nc(-c3csc4ccccc34)nc21 [SR1, StemRegenin 1]
CD303 surface expression (HSPC-pDCs; SR1 removed from media vs standard condition): no apparent difference | CD123 surface expression (HSPC-pDCs; SR1 removed from media, standard culturing condition MEI 1938): 988 (±391) MEI | fold change in number of cells in culture after the 3 days ([1]; named supplement removed day 14-17, standard condition 2.31 (±0.49)): 2.38 (±0.23) | difference in the number of cells in culture between day 14 and 17 ([1]; named supplement removed from media day 14-17, standard condition 22.5×10^6 (±2.15×10^6)): 25.3×10^6 (±3.12×10^6) cells

— US20240141294A1, “CGMP COMPLIANT PRODUCTION AND EXPANSION OF PLASMACYTOID DENDRITIC CELLS FROM HEMATOPOIETIC STEM AND PROGENITOR CELLS” (AARHUS UNIVERSITET, priority 2021, published 2024)
